{"source": "patent US6638968B1", "about": "“Use of prodigiosin for treating diabetes mellitus” (Korea Research Institute of Bioscience and Biotechnology, priority 2000, dated 2003)", "format_in_all_cases": "in vivo, mouse", "key": {"[1]": {"tested_on": "NOD mice", "test": "Insulitis: lymphocyte infiltration into pancreatic ducts, hematoxylin/eosin staining", "conditions": "prodigiosin-injected NOD mice", "experimental": "In insulin-dependent diabetes mellitus, insulitis may be induced by lymphocyte infiltration into pancreatic ducts and destruction of beta cells thereby. Macrophages and T cells are the major infiltrating lymphocytes, and these immune cells destroy beta cells. The pancreas from both the prodigiosin-injected and the non-injected NOD mice were preserved in formalin and to preparation. After the hematoxylin/eosin staining, the lymphocyte infiltration level was measured. 1, 2, and 3 point were respectively given to 25, 50, and 75% of insulitis progression, and the average value of insulitis progression was calculated (FIG. 4). The NOD mice, not receiving prodigiosin, had more than 2 point, or over 50% of infiltration, while the infiltration level of the prodigiosin-injected mice was about 1 point, or under 20% of infiltration."}, "[2]": {"tested_on": "NOD mice", "test": "Side effects of prodigiosin in NOD mice (body weight, mortality, pathological test of liver, kidney, lung)", "experimental": "Because of diabetes, NOD mice have their weight decrease and come to die in 2 weeks after symptoms of diabetes.\nFIG. 7 illustrates that the prodigiosin has no side effect.\nIn NOD mice receiving prodigiosin from 8 weeks to 24 weeks age, the negative effects of the prodigiosin were examined (FIG. 7). […] After their liver, kidney, and lung had been extracted from the prodigiosin-injected NOD mice, a pathological test was performed using the hematoxylinleosin staining."}, "[3]": {"tested_on": "NOD mice", "test": "Blood glucose of NOD mice (plasma, blood biochemical analyzer)", "conditions": "prodigiosin-injected NOD mice, 10 mg/kg intraperitoneally", "experimental": "FIG. 3 illustrates decrease of the blood glucose by administration of prodigiosin. After we isolated plasma from NOD mouse, the blood glucose was measured with the blood biochemical analyzer (Cibacorning, USA).\nProdigiosin was intraperitoneally injected in 10 mg/kg from 8 weeks to 24 weeks of age, and the urine glucose was measured with uropaper (Eiken Chemical Co. Ltd., Japan) every week. In control group of NOD mice, not receiving prodigiosin, the urine glucose was first detected from 15 weeks of age, and at 24 weeks, 80% of the mice had the urine glucose detected (FIG. 2). […] Average blood glucose of non-prodigiosin-injected NOD mice was 500 mg/dl, which means diabetes mellitus crisis, and that of prodigiosin-injected NOD mice was 100 mg/dl, which means the normal condition (FIG. 3)."}}, "data": [{"molecule": "CCCCCC1=C/C(=C/c2[nH]c(-c3ccc[nH]3)cc2OC)N=C1C", "note": "[prodigiosin]", "values": [{"measurement": "lymphocyte infiltration", "setting": "[1]; pancreas, hematoxylin/eosin staining", "result": "under 20%"}, {"measurement": "infiltration level (average insulitis progression score)", "setting": "[1]; 1, 2, 3 point = 25, 50, 75% insulitis progression", "result": "about 1 point"}, {"measurement": "mortality", "setting": "[2]; NOD mice receiving prodigiosin", "result": "any mice were not found dead"}, {"measurement": "toxicity to kidney, liver and lung", "setting": "[2]; NOD mice receiving prodigiosin", "result": "no toxicity to kidney, liver and lung"}, {"measurement": "body weight", "setting": "[2]; NOD mice receiving prodigiosin from 8 to 24 weeks of age", "result": "didn't decrease"}, {"measurement": "toxicity to kidney (glomerulus and nephric tubule, pathological test)", "setting": "[2]; NOD mice receiving prodigiosin from 8 to 24 weeks of age, hematoxylin/eosin staining", "result": "no toxicity to kidney"}, {"measurement": "average blood glucose", "setting": "[3]", "result": 100, "unit": "mg/dL"}]}]}
